Data published in PMC4942781, “A sodium channel inhibitor ISTX-I with a novel structure provides a new hint at the evolutionary link between two toxin folds” (Scientific Reports, 2016).
Entries after “also recorded” stand apart in the source; their conditions may differ. Bridge positions count the residues as written; N and C are the ends. Ends that are not written are not given here.

Legend:
calcium channel = test: Whole-cell patch clamp, Cav currents in DRG neurons; assay type: cell-based, rat; conditions: 20 μM ISTX-I, 150 ms step depolarization to +10 mV from −90 mV, Ba2+ as charge carrier
Method: (§1) Rat DRG cells were acutely dissociated from adult Sprague-Dawley rats[30]. Briefly, adult rats of either sex with body weights of approximately 200 g were killed by decapitation. The dorsal root ganglia were isolated quickly from the spinal cord and then transferred into Dulbecco’s modified Eagle’s medium (DMEM) containing trypsin I (0.15 mg/mL) and collagenase II (0.3 mg/mL) for incubation with an oscillation frequency of 200 rpm at 37 °C for 20 min. The trypsin inhibitor II-S (1 mg/mL) was added to terminate the reaction. […]
(§2) DRG neurons with a large diameter (>[…]) and those with a relatively small diameter (<[…]) were chosen by measuring TTX-s and TTX-r currents, respectively. […] Potassium, calcium, and sodium currents were recorded in experimental cells using whole-cell patch-clamp recordings at room temperature, which were performed with an HEK EPC10 patch-clamp amplifier. […] Experimental data were acquired and analyzed using the programs patch master and Sigmaplot 9.0 (Sigma, USA). […]
(§3) Currents were recorded from experimental cells using whole-cell patch clamptechnique at room temperature (22–25 °C). […]
25, MgCl2 12, HEPES 10, and D-glucose 10 (pH 7.2). Calcium channel currents were measured using Ba2+ as the charge carrier. […]

hNav1.1 = test: Whole-cell patch clamp, hNav1.1 in HEK293T cells; assay type: cell-based, human; conditions: 10 μM ISTX-I; 50 ms step to -10 mV from -80 mV
Method: HEK293T (human embryonic kidney) cells were grown in DMEM containing 10% heat-inactivated FBS at 37 °C in a 5% CO2 incubator. The cDNA genes encoding human (h)Nav1.1, (h)Nav1.2, (h)Nav1.3, (h)Nav1.4, (h)Nav1.5, (h)Nav1.6 and (h)Nav1.7 were transiently transfected into HEK293T cells for electrophysiology using Lipofectamine-2000 (Invitrogen) in serum-reduced medium (Opti-MEM, Invitrogen) following the manufacturer’s instructions. The auxiliary subunits hβ1 and enhanced green florescent protein plasmids were cotransfected into HEK293T cells to increase the current density and efficiently select cells with green florescent protein for whole-cell patch-clamp recordings. After 12 h, the HEK293T cells were used for electrophysiological analysis.
as §2, §3

potassium channel = test: Whole-cell patch clamp, Kv currents in DRG neurons; assay type: cell-based, rat; conditions: 20 μM ISTX-I, 500 ms depolarized potential of +10 mV
Method: as §1, §2, §3
(pH 7.4). K+ currents were recorded using an internal solution containing the followings (in mM): KCl 140, MgCl2 2.5, HEPES 10, and EGTA 11 (pH 7.2). […]

Sequence: LCSENGDCAADECCVDTVFEGDMVTRSCEKTTGNFTECPGLTPIA (disulfide 2-14, 8-28, 13-38) [ISTX-I]
- effect on calcium channels (calcium channel): no obvious effects; also recorded: No effects were detected
- effect on hNav1.1 (hNav1.1): no effect
- effect on potassium channels (potassium channel): no obvious effects; also recorded: No effects were detected
